Laboratory results from paper PMC11145868, “Protein target similarity is positive predictor of in vitro antipathogenic activity: a drug repurposing strategy for Plasmodium falciparum” (Journal of Cheminformatics, 2024).
Where a name gives a salt, the structure may show the parent alone. Read-outs that look alike come from different tables or passages of the source.

Columns and labels:
[1] = Mammalian cell cytotoxicity assay, HEK293T (CellTiter-Glo, 72 h); details: human, HEK293T cells
[2] = tested on: P. falciparum Dd2-HLH; experiment: microbe, parasite or virus in culture; type: cell-based, Plasmodium falciparum
[3] = tested on: P. falciparum Dd2-HLH; experiment: microbe, parasite or virus in culture; type: cell-based, Plasmodium falciparum; details: read-out: Blood stage 72h EC50
[4] = tested on: P. berghei-luciferase sporozoites; experiment: microbe, parasite or virus in culture; type: cell-based, Plasmodium berghei
[5] = Plasmodium falciparum, DD2, 48 h, read-out: Blood stage 48h EC50
[6] = Plasmodium falciparum, DD2, 72 h
[7] = Plasmodium berghei, HepG2, liver-stage parasites, 48 hours in culture, read-out: Liver stage 48h EC50

`CCc1cc2c(cc1CC)CC(NC[C@H](O)c1ccc(O)c3[nH]c(=O)ccc13)C2` [Indacaterol maleate] showed a CC50 at 72 h [1] greater than 9950 nM, an EC50 [2, 5] of 682 nM and an EC50 [3, 6] of 951 nM. For the same molecule, the EC50 [4, 7] was 3110 nM.

In the case of `O=C1c2c(O)ccc(O)c2C(=O)c2c(NCCNCCO)ccc(NCCNCCO)c21` [Mitoxantrone], the CC50 at 72 h [1] is reported as 217 nM, the EC50 [2, 5] is reported as 239 nM and the EC50 [3, 6] is reported as 357 nM. For the same molecule, the EC50 [4, 7] was 1720 nM.

With `Cc1c(-c2ccc(O)cc2)n(Cc2ccc(OCCN3CCCCCC3)cc2)c2ccc(O)cc12` [Bazedoxifene Acetate] the CC50 at 72 h [1] was 3040 nM, the EC50 [2, 5] was 192 nM and the EC50 [3, 6] was 636 nM. The EC50 [4, 7] was 5560 nM.

In the case of `Cc1cc(Nc2nc(C(O)c3ccc(F)cc3)nc3ccccc23)n[nH]1` (centres unmarked) [AC-430], the CC50 at 72 h [1] is reported as greater than 9950 nM, the EC50 [2, 5] is reported as 1200 nM and the EC50 [3, 6] is reported as 924 nM. The EC50 [4, 7] was 4210 nM.

Oligomycin A showed an EC50 ([2]; P. falciparum blood-stage parasites, 48 hours in culture, read-out: Blood stage 48h EC50) of 57 nM, an EC50 ([3]; P. falciparum blood-stage parasites, 72 hours in culture) of 168 nM and an EC50 ([4]; liver-stage parasites, 48 hours in culture, read-out: Liver stage 48h EC50) of 578 nM.

Work on `COC(=O)C[C@](O)(CCC(C)(C)O)C(=O)O[C@@H]1C(OC)=C[C@]23CCCN2CCc2cc4c(cc2[C@H]13)OCO4` [harringtonine, reference compound] yielded an EC50 [2, 5] of 24 nM, an EC50 ([2]; Plasmodium falciparum, DD2, read-out: EC50 (antiplasmodial, quoted in discussion from Supplementary Table 1)) of 6.1 nM and an EC50 [3, 6] of 43 nM. It also gave an EC50 [4, 7] of 29 nM.

Work on `O=C(/C=C/c1cccc(S(=O)(=O)Nc2ccccc2)c1)NO` [Belinostat] yielded a CC50 at 72 h [1] of 1290 nM, an EC50 [2, 5] of 90 nM and an EC50 [3, 6] of 188 nM. It also gave an EC50 [4, 7] of 1830 nM.

Molecule `OC1(c2ccc(Cl)c(C(F)(F)F)c2)CCN(CCCC(c2ccc(F)cc2)c2ccc(F)cc2)CC1` [Penfluridol] has a CC50 at 72 h [1] of 1900 nM, an EC50 [2, 5] of 218 nM and an EC50 [3, 6] of 524 nM. It also gave an EC50 [4, 7] of 3170 nM.

Work on `CS(=O)(=O)CCNCc1ccc(-c2ccc3ncnc(Nc4ccc(OCc5cccc(F)c5)c(Cl)c4)c3c2)o1` [Lapatinib] yielded a CC50 at 72 h [1] greater than 9950 nM, an EC50 [2, 5] of 300 nM and an EC50 [3, 6] of 519 nM. For the same molecule, the EC50 [4, 7] was 4220 nM.

Work on `Cn1cc(CNCC2CCN(c3ncc(C(=O)NO)cn3)CC2)c2ccccc21` [Quisinostat, reference compound] yielded a CC50 at 72 h [1] of 33 nM, an EC50 ([2]; Plasmodium falciparum, DD2, Hec50, 48 h, read-out: Blood stage 48 h EC50) of 1 nM and an EC50 [3, 6] of 3 nM. The EC50 ([4]; Plasmodium berghei, liver-stage parasites, 48 h in culture, read-out: Liver 48 h EC50) was 8 nM.

In the case of `C=C[C@H]1C[N@@]2CC[C@H]1C[C@@H]2[C@@H](O)c1ccnc2ccc(OC)cc12` [Quinidine], the CC50 at 72 h [1] is reported as greater than 9950 nM, the EC50 [2, 5] is reported as 41 nM and the EC50 [3, 6] is reported as 84 nM. The EC50 [4, 7] was greater than 10000 nM.

For `CNCCCC1c2ccccc2C=Cc2ccccc21` [Protriptyline hydrochloride], the CC50 at 72 h [1] was greater than 9950 nM, the EC50 [2, 5] was 430 nM and the EC50 [3, 6] was 959 nM. For the same molecule, the EC50 ([4]; Plasmodium berghei, HepG2, 48 h, read-out: Liver stage 48h EC50) was greater than 10000 nM.

In the case of `COCCn1c2c([n+](Cc3cnccn3)c1C)C(=O)c1ccccc1C2=O` [Sepantronium bromide], the CC50 at 72 h [1] is reported as 56 nM, the EC50 [2, 5] is reported as 21 nM and the EC50 [3, 6] is reported as 82 nM. It also gave an EC50 [4, 7] of 10 nM.

`C/C=C/C[C@@H](C)C(=O)[C@H]1C(=O)N[C@@H](C(C)C)C(=O)N(C)CC(=O)N(C)[C@@H](CC(C)C)C(=O)N[C@@H](C(C)C)C(=O)N(C)[C@@H](CC(C)C)C(=O)N[C@@H](C)C(=O)N[C@H](C)C(=O)N(C)[C@@H](CC(C)C)C(=O)N(C)[C@@H](CC(C)C)C(=O)N(C)[C@@H](C(C)C)C(=O)N1C` [Valspodar] gave a CC50 at 72 h [1] greater than 9950 nM, an EC50 [2, 5] of 307 nM and an EC50 [3, 6] of 370 nM. The EC50 [4, 7] was 3 nM.

`CNCCCN1c2ccccc2CCc2ccccc21` [Desipramine] gave a CC50 at 72 h [1] greater than 9950 nM, an EC50 [2, 5] of 238 nM and an EC50 [3, 6] of 622 nM. It also gave an EC50 [4, 7] of 3330 nM.

In the case of `C#Cc1cccc(Nc2ncnc3cc(OC)c(OCCCCCCC(=O)NO)cc23)c1` [CUDC-101], the CC50 at 72 h [1] is reported as 408 nM, the EC50 [2, 5] is reported as 41 nM and the EC50 [3, 6] is reported as 52 nM. It also gave an EC50 [4, 7] of 349 nM.

For `CCNC(=O)c1noc(-c2cc(C(C)C)c(O)cc2O)c1-c1ccc(CN2CCOCC2)cc1` [Luminespib], the CC50 at 72 h [1] was 11 nM, the EC50 [2, 5] was 38 nM and the EC50 [3, 6] was 40 nM. It also gave an EC50 [4, 7] of 29 nM.

With `CO[C@@H]1[C@H](O)C[C@@H](O[C@@H]2C[C@H](Oc3cc4cc5c(c(O)c4c(O)c3C)C(=O)[C@@H](O[C@H]3C[C@@H](O[C@H]4C[C@@H](O[C@H]6C[C@](C)(O)[C@@H](OC(C)=O)[C@H](C)O6)[C@H](O)[C@@H](C)O4)[C@H](O)[C@@H](C)O3)[C@H]([C@H](OC)C(=O)[C@@H](O)[C@@H](C)O)C5)O[C@H](C)[C@@H]2OC(C)=O)O[C@@H]1C` [Chromomycin A3] the EC50 [2, 5] was 31 nM, the EC50 [3, 6] was 48 nM and the EC50 [4, 7] was 30 nM.

For `CC(C)c1cc(CNc2nc(Nc3cc(C4CC4)[nH]n3)cc(N3CCN(C)CC3)n2)on1` [XL-228], the CC50 at 72 h [1] was 537 nM, the EC50 [2, 5] was 56 nM and the EC50 [3, 6] was 621 nM.

`CC[C@H](NC(=O)[C@H](C)NC)C(=O)N1C[C@@H](O)C[C@H]1Cc1c(-c2[nH]c3cc(F)ccc3c2C[C@@H]2C[C@H](O)CN2C(=O)[C@H](CC)NC(=O)[C@H](C)NC)[nH]c2cc(F)ccc12` [Birin/apant] gave a CC50 at 72 h [1] greater than 9950 nM, an EC50 [2, 5] of 190 nM and an EC50 [3, 6] of 603 nM. The EC50 [4, 7] was greater than 10000 nM.
